Results: article PMC12051037 (Chemistry (Weinheim an der Bergstrasse, Germany), 2024)
“Also recorded” adds a separate entry of the source.

Assay: Stability of the aldehyde in solution
Type: physicochemical
Conditions: slowly converts into 1

tumonolide aldehyde [compound 2]
stability: not stable; also recorded: poor stability
